Columns and labels:
[1] = biological target: ATP-dependent translocase ABCB1 (P-glycoprotein) (Homo sapiens, UniProt P08183); assay: (§1) Ratio of IC50 of cytotoxicity to the IC50 of MDR- reversal for P388/VMDRC.04 cells; type: functional, cell-based; details: mouse, P388/VMDRC.04 cells
[2] = Evaluated for cytotoxicity using P388/VMDRC.04 cells (a subline of P388 murine leukemia cells expressing human recombinant human P-glycoprotein) in the absence of 10 nM vincristine
[3] = biological target: ATP-dependent translocase ABCB1 (Homo sapiens, UniProt P08183); assay: as §1; type: functional, cell-based; details: mouse
ATP-dependent translocase ABCB1, sequence (P08183 whole entry): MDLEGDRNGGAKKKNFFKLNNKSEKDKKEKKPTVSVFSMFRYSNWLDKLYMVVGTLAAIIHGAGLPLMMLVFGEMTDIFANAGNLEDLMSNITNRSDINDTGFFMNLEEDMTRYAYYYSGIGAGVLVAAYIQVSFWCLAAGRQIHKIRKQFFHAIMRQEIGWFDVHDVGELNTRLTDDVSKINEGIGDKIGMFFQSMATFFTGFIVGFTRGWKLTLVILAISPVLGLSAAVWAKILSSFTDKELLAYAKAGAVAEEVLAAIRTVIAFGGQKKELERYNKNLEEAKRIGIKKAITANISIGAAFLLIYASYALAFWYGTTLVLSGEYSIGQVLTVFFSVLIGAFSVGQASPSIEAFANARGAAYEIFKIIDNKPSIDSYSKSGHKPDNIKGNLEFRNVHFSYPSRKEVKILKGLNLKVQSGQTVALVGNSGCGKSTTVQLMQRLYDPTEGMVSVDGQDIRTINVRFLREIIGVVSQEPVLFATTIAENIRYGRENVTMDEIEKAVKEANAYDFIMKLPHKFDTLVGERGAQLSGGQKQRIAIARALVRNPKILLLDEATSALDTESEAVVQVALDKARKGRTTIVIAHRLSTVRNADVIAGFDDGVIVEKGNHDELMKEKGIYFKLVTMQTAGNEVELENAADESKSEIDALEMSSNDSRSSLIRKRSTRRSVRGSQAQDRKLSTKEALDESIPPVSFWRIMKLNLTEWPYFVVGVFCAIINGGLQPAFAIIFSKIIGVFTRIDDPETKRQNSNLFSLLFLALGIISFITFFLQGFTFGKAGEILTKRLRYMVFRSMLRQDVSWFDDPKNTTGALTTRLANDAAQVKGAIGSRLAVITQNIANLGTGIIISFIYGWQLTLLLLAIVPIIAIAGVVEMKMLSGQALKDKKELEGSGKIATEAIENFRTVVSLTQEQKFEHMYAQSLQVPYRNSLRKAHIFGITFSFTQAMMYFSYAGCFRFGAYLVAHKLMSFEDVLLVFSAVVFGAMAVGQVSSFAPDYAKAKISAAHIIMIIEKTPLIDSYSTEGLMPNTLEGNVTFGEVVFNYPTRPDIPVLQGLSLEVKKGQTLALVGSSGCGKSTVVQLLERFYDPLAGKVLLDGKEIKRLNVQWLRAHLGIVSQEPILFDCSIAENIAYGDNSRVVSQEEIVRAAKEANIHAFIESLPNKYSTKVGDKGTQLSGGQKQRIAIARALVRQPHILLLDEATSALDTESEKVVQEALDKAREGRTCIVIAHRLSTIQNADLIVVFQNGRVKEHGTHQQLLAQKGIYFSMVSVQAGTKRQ

ATP-dependent translocase ABCB1 (P-glycoprotein), sequence (P08183 whole entry): as above

| Structure (SMILES) | selectivity ratio [1] | IC50 [2] [µM] | Ratio [3] |
| --- | --- | --- | --- |
| CCCCCCC[C@H]1OC(=O)C[C@H](O)[C@H](Cc2ccccc2)N(C)C(=O)[C@H](C(C)C)OC(=O)[C@H]1C [listing 1 of 2 here] | 5.4 |  |  |
| CCCC[C@H]1OC(=O)C[C@H](O)[C@H](Cc2ccccc2)N(C)C(=O)COC(=O)[C@H]1C | > 4.4 |  |  |
| CCCCCCC[C@H]1OC(=O)C[C@@H](O)[C@H](Cc2ccccc2)N(C)C(=O)COC(=O)[C@H]1C | 3.8 |  |  |
| CCCCCCC[C@H]1OC(=O)C[C@H](O)[C@H](Cc2ccccc2)N(C)C(=O)[C@H](C(C)C)OC(=O)[C@H]1C [listing 2 of 2 here] | 7.4 |  |  |
| COCO[C@@H]1CC(=O)O[C@H](C)[C@H](C)C(=O)O[C@@H](C(C)C)C(=O)N(C)[C@H]1Cc1ccccc1 | > 10 |  |  |
| CCCCCCC[C@H]1OC(=O)C[C@H](O)[C@H](Cc2ccccc2)N(C)C(=O)C(C)(C)OC(=O)[C@H]1C | 6.6 |  |  |
| CCCCCCC[C@@H]1CC(=O)O[C@@H](C(C)C)C(=O)N(C)[C@@H](Cc2ccccc2)[C@H](O)CC(=O)O1 | 3.8 |  |  |
| CC(C)[C@@H]1OC(=O)[C@@H](C)[C@@H](C)OC(=O)C[C@@H](O)[C@H](Cc2ccccc2)N(C)C1=O | > 9 |  |  |
| COC(=O)C[C@@H](O)[C@H](Cc1ccccc1)N(C)C(=O)OCc1ccccc1 | 5.2 |  |  |
| COCO[C@H]1CC(=O)O[C@H](C)[C@H](C)C(=O)OCC(=O)N(C)[C@H]1Cc1ccccc1 | > 2.3 |  |  |
| CC(C)[C@@H]1OC(=O)[C@@H](C)COC(=O)C[C@@H](O)[C@H](Cc2ccccc2)N(C)C1=O | > 7.5 | > 100 |  |
| CCCCCCC[C@@H](O)[C@H](C)C(=O)OC |  | > 100 |  |
| CCCCCCC[C@@H]1CC(=O)O[C@@H](C(C)C)C(=O)N(C)[C@@H](Cc2ccccc2)[C@H](OCOC)CC(=O)O1 | 5.7 |  |  |
| CCCC[C@H]1OC(=O)C[C@H](OCOC)[C@H](Cc2ccccc2)N(C)C(=O)COC(=O)[C@H]1C | > 8.5 | > 100 |  |
| COCO[C@H](CC(=O)OC)[C@H](Cc1ccccc1)N(C)C(=O)OCc1ccccc1 | 5.7 |  |  |
| CCCCCCC[C@H]1OC(=O)C[C@@H](OCOC)[C@H](Cc2ccccc2)N(C)C(=O)COC(=O)[C@H]1C | 6.5 |  |  |
| CCCCCCC[C@H]1OC(=O)C[C@@H](OCOC)[C@H](Cc2ccccc2)N(C)C(=O)[C@H](C)OC(=O)[C@H]1C | 3.2 |  |  |
| CCCCCCC[C@H]1OC(=O)C[C@H](OCOC)[C@H](Cc2ccccc2)N(C)C(=O)C(C)(C)OC(=O)[C@H]1C | 3.5 |  |  |
| COCO[C@@H]1CC(=O)OC[C@H](C)C(=O)O[C@@H](C(C)C)C(=O)N(C)[C@H]1Cc1ccccc1 | > 15.9 |  |  |
| CCCCCCC[C@H]1OC(=O)CC[C@H](Cc2ccccc2)N(C)C(=O)[C@H](C(C)C)OC(=O)[C@H]1C | 5.6 |  |  |
| CCCCCCC[C@@H](O)[C@H](C)C(=O)O[C@H](C(=O)OC)C(C)C | > 5.2 |  |  |
| CCCCCCC[C@H]1OC(=O)C[C@@H](OCOC)[C@H](Cc2ccccc2)N(C)C(=O)[C@H](C(C)C)OC(=O)[C@H]1C | 5.7 | 34.9 |  |
| CCCCCCC[C@H]1OC(=O)C[C@@H](O)[C@H](Cc2ccccc2)N(C)C(=O)[C@H](C)OC(=O)[C@H]1C | 4.3 |  |  |
| CCCCCCC[C@H]1OC(=O)C[C@H](OCOC)[C@H](Cc2ccccc2)N(C)C(=O)[C@H](C(C)C)OC(=O)[C@H]1C (stereo in doubt; 14) | 7.5 |  |  |
| CCCCCCC[C@H]1OC(=O)C[C@H](OCOC)[C@H](Cc2ccccc2)N(C)C(=O)[C@H](C(C)C)OC(=O)[C@H]1C (stereo in doubt; 22) |  |  | 6.2 |
| CCCCCCC[C@H]1OC(=O)C[C@@H](O)[C@H](Cc2ccccc2)N(C)C(=O)[C@H](C(C)C)OC(=O)[C@H]1C [HAPALOSIN] | 3 |  |  |
